We go through five compounds from publication PMC9143450, “Oxonitrogenated Derivatives of Eremophilans and Eudesmans: Antiproliferative and Anti-Trypanosoma cruzi Activity” (Molecules, 2022).

In one data set the test system is HBL-100. In words: Antiproliferative SRB assay (NCI protocol), HBL-100. Format: cell-based, human. Conditions: for GI50: Homo sapiens, HBL-100 (breast), 48 h drug exposure, SRB, ± SD; for Selectivity index (SI) on tumor cells: CC50 splenocytes / GI50 HBL-100. The protocol: (§1) In vitro antiproliferative activity was evaluated using the protocol of the National Cancer Institute (NCI) after 48 h of drug exposure using the sulforhodamine B (SRB) assay.
(§2) The following human solid tumor cell lines were used in this study: HBL-100 (breast), HeLa (cervix), SW1573 (non-small cell lung), T-47D (breast), A549 (lung), and WiDr (colon). These cell lines were a kind gift from Prof. G. J. Peters (VU Medical Center, Amsterdam, The Netherlands). Cells were maintained in 25 cm^2 culture flasks in RPMI 1640 supplemented with 5% heat-inactivated fetal calf serum and 2 mM L-glutamine in a 37 °C, 5% CO2, 95% humidified air incubator. Exponentially growing cells were trypsinized and resuspended in antibiotic containing medium (100 units penicillin G and 0.1 mg of streptomycin per mL). Single cell suspensions displaying > 97% viability by trypan blue dye exclusion test were subsequently counted. After counting, dilutions were made to give the appropriate cell densities for inoculation onto 96-well microtiter plates. Cells were inoculated in a volume of 100 μL per well at densities of 5000 (WiDr and T-47D), and 2500 (A549, HeLa, SW1573 and HBL-100) cells per well, based on their doubling times.
(§3) Chemosensitivity tests were performed using the SRB assay of the NCI with slight modifications. Briefly, pure compounds were initially dissolved in DMSO at 400 times the desired final maximum test concentration. Control cells were exposed to an equivalent concentration of DMSO (0.25% v/v, negative control). Each agent was tested in triplicates at different dilutions in the range 1–100 μM. Drug treatment started on day 1 after plating. Drug incubation periods were 48 h, after which cells were precipitated with 25 μL of ice-cold 50% (w/v) trichloroacetic acid and fixed for 60 min at 4 °C. Then, the SRB assay was performed. The optical density (OD) of each well was measured at 530 nm, using BioTek’s PowerWave XS Absorbance Microplate Reader. Values were corrected for background OD from wells containing only culture medium. The percentage growth (PG) was calculated with respect to untreated control cells (C) at each level of drug concentrations based on the difference in OD at the start time (T0) and at the end of drug exposure (T), according to NCI formulas. Therefore, if T is greater than or equal to T0, the calculation is 100 × ((T − T0)/(C − T0)). If T is lower than T0, denoting cell death, the calculation is 100 × ((T − T0)/(T0)). The effect is defined as the growth percentage, where 50% growth inhibition (GI50) represents the concentration at which PG is +50. Based on these calculations, a PG value of 0 corresponds to the number of cells present at the beginning of drug exposure, while negative PG values denote net cell death.

Another data set deals with HeLa. Briefly: Antiproliferative SRB assay (NCI protocol), HeLa. Format: cell-based, human. The following applies: for GI50: Homo sapiens, HeLa (cervix), 48 h drug exposure, SRB, ± SD; for Selectivity index (SI) on tumor cells: CC50 splenocytes / GI50 HeLa. On the procedure: as §1, §2, §3
Data set [1] has as its system Trypanosoma cruzi epimastigotes (RA strain). In words: In vitro anti-Trypanosoma cruzi assay ((3H) thymidine uptake). Format: cell-based. The following applies: for IC50: Trypanosoma cruzi, epimastigotes (RA strain), ± SD; for Selectivity Index on T. cruzi epimastigotes: CC50 splenocytes / IC50 epimastigotes. The protocol: Trypanosoma cruzi epimastigotes (RA strain, from discrete typing unit (DTU) VI) were grown in a biphasic medium. Cultures were maintained by weekly passages at 28 °C [18].
The growth inhibition of T. cruzi epimastigotes was evaluated by a (^3H) thymidine uptake assay as previously described. Natural sesquiterpenes and derivatives were evaluated at concentrations ranging from 1.5 to 50 µg/mL. Benznidazole (Active Pharmaceutical Ingredient) was used as positive control (Elea). The percentage of inhibition was calculated as 100 = {((cpm of treated parasites)/(cpm of untreated parasites)) × 100}.
Figure 5 Effect of the natural sesquiterpene tessaric acid (1), ilicic acid (2), and ilicic alcohol (3) and their derivatives on T. cruzi. Epimastigotes (RA strain) were cultured in the presence of the compounds (50–1.5 µg/mL). Determinations were performed by triplicate. The results are expressed as the mean ± SD. (A) Effect of tessaric acid and derivatives on epimastigotes; (B) Effect of ilicic acid and derivatives on epimastigotes; (C) Effect of ilicic alcohol and derivatives on epimastigotes.

The next data set concerns WiDr. Briefly: Antiproliferative SRB assay (NCI protocol), WiDr. The following applies: for GI50: Homo sapiens, WiDr (colon), 48 h drug exposure, SRB, ± SD; for Selectivity index (SI) on tumor cells: CC50 splenocytes / GI50 WiDr. It is filed as cell-based, human. On the procedure: as §1, §2, §3
Data set [2] relates to HeLa, T-47D, WiDr, A549, HBL-100, and SW1573 cell lines. Briefly: Antiproliferative SRB assay, whole panel of human solid tumor cell lines. The following applies: for GI50: Homo sapiens, minimal to maximal GI50 across the cell lines tested, 48 h, SRB, read-out: GI50 values, range over all cell lines tested. It is filed as cell-based. The protocol:
as §1, §2, §3

In data set [3] the test system is splenocytes obtained from Balb/c mouse. In words: Cytotoxicity on primary cell culture (flow cytometry, PI). It is filed as cell-based. Conditions: ± SD, read-out: Cytotoxic activity on spleen cells (CC50). The protocol:
(§4) The cytotoxicity of the natural sesquiterpenes (1–3) and derivatives (4–19) was determined on primary cell cultures (splenocytes obtained from Balb/c mouse). […] Derivatives of tessaric acid have shown an improvement in CC50 values in comparison with the natural sesquiterpene 1. […] All the derivatives synthesized from alcohol ilicic (compounds 10–19) were more toxic to mammalian cells than the natural compound (3).
(§5) The cytotoxicity of the compounds was evaluated on splenocytes obtained from Balb/c mouse (1.5 × 10^5) and incubated with different drug dilutions (5–200 μg/mL) as previously described. Cell death was determined by flow cytometry using a BD FACSaria II cytometer. Cells incubated only with drug vehicle were used as 100% viability control, and death percentage was calculated according to the following formula: Death%=1−(%PI^−cells)drug−treated/(%PI^−cells)100% viability control × 100
(§6) The concentration capable of causing 50% cell death (CC50) was determined using a non-linear regression approach.

Assay in data set [4]: as above
It is filed as cell-based. Conditions: Balb/c, mouse, primary splenocytes (spleen cells), ± SD, read-out: Cytotoxic activity on spleen cells (CC50). On the procedure: as §4, §5, §6

The subject of a further data set is SW1573. In words: Antiproliferative SRB assay (NCI protocol), SW1573. It is filed as cell-based, human. The following applies: for GI50: Homo sapiens, SW1573 (non-small cell lung), 48 h drug exposure, SRB, ± SD; for Selectivity index (SI) on tumor cells: CC50 splenocytes / GI50 SW1573. On the procedure:
as §1, §2, §3

Another data set deals with T-47D. Briefly: Antiproliferative SRB assay (NCI protocol), T-47D. It is filed as cell-based, human. Conditions: for GI50: Homo sapiens, T47D, T-47D (breast), 48 h drug exposure, SRB, ± SD; for Selectivity index (SI) on tumor cells: CC50 splenocytes / GI50 T-47D. The protocol:
as §1, §2, §3

Another data set deals with A549. Briefly: Antiproliferative SRB assay (NCI protocol), A549. Format: cell-based, human. Conditions: for Selectivity index (SI) on tumor cells: CC50 splenocytes / GI50 A549; for GI50: Homo sapiens, A549 (lung), 48 h drug exposure, SRB, ± SD. On the procedure: as §1, §2, §3

For the compound `C=C(C(=O)O)[C@@H]1CCC2=CC(=O)C[C@H](C)[C@@]2(C)C1` [Compound 1, tessaric acid], the concentration for 50% growth inhibition (GI50) with HBL-100, in the data set with HeLa, with WiDr, in the data set on SW1573 and in the data set with T-47D was over 100 µM in each case. Besides, in data set [1] (T. cruzi), the “Trypanocidal activity (in words)” value was “nor trypanocidal activity”. In [1], this compound gave an IC50 of over 201 µM. Further, the “Antiproliferative activity (in words)” value in data set [2] (solid tumor cell lines evaluated) is “did not show antiproliferative activity”. The figures for the CC50 in data set [3] and in [4] were 329 µM and over 329 µM, respectively.

As to `C=C(C(=O)N(c1ccccc1)C(C)(C)C(=O)NCc1ccccc1)C1CCC2(C)CCCC(C)(O)C2C1` (stereo not drawn) [Compound 12], the “Selectivity index (SI) on tumor cells” value in the data set with A549 was determined as 2.9; in the data set with HBL-100, 3.2; with HeLa, 3.8; in the data set on WiDr, 2.7; with SW1573 it was 2.4; with T-47D, 3.2. The GI50 is 22 µM in the data set with A549; 20 µM with HBL-100; 17 µM in the data set with HeLa; 24 µM in the data set on WiDr; 17 to 64 µM in data set [2]; 27 µM with SW1573. Also, the concentration for 50% growth inhibition (GI50) in the data set on T-47D is 20 µM. The “Selectivity Index on T. cruzi epimastigotes” value in [1] was determined as 8.0. The same compound yielded an IC50 in data set [1] of 8 µM. The CC50 in data set [4] stood at 64.3 µM.

Turning to `C=C(C(=O)N(Cc1ccccc1)C(C)(C)C(=O)NCc1ccccc1)C1CCC2(C)CCCC(C)(O)C2C1` (stereo not drawn) [Compound 13], the “Selectivity index (SI) on tumor cells” value in the data set with A549 stood at 5.2; with HBL-100, 2.1; in the data set on HeLa, 3.4; in the data set on WiDr, 2.5; in the data set on SW1573, 2.5; in the data set with T-47D it was 2.5. Besides, the 50% growth inhibitory concentration (GI50) in the data set with A549 was 5.3 µM; in the data set with HBL-100, 13 µM; with HeLa, 8 µM; with WiDr, 11 µM; in [2], 5.3 to 14 µM; with SW1573 it was 11 µM. The same compound displayed a concentration for 50% growth inhibition (GI50) in the data set with T-47D of 11 µM. Moreover, the “Selectivity Index on T. cruzi epimastigotes” value in [1] was found to be 0.5. The IC50 in data set [1] turned out to be 59.6 µM. Further, the cytotoxic concentration (CC50) in data set [4] was 27.4 µM.

`C=C(C(=O)N(c1ccccc1)C(C)(C)C(=O)NC1CCCCC1)C1CCC2(C)CCCC(C)(O)C2C1` (stereo not drawn) [Compound 14]: the “Selectivity index (SI) on tumor cells” value in the data set with A549 is reported as over 18.4; in the data set with HeLa, over 24; in the data set on T-47D it was over 17. Moreover, the 50% growth inhibitory concentration (GI50) is 22 µM in the data set with A549; 20 µM with HBL-100; 17 µM in the data set on HeLa; 20 µM in the data set on WiDr; 17 to 64 µM in [2]; 27 µM in the data set on SW1573. Besides, the GI50 in the data set with T-47D was found to be 23 µM. The compound further came in with an IC50 in data set [1] of over 101 µM. For the same compound, the “Selectivity index (IS) values, over the tumor cell lines evaluated” value in data set [2] (CC50 splenocytes / GI50 tumor cells, across cell lines) is recorded as “greater than 15”. The CC50 in data set [4] is over 405 µM.

Turning to `C=C(C(=O)N(Cc1ccccc1)C(C)(C)C(=O)NC1CCCCC1)C1CCC2(C)CCCC(C)(O)C2C1` (stereo not drawn) [Compound 15], the GI50 in the data set with A549 was 13 µM; in the data set with HBL-100, 19 µM; with HeLa it was 14 µM; with WiDr, 18 µM; in data set [2], 5.3 to 14 µM; in the data set with SW1573 it was 17 µM. Also, in the data set on T-47D, halving of growth (GI50) required 19 µM. Moreover, the “Selectivity index (SI) on tumor cells” value in the data set on HBL-100 came to 1.5; with WiDr, 1.7; in the data set on SW1573, 1.5; with T-47D, 1.7. Besides, the “Selectivity Index on T. cruzi epimastigotes” value in data set [1] came out at 1.0. This compound also had an IC50 in data set [1] of 22.4 µM. The CC50 in data set [4] amounted to 21.5 µM.
